Results as given in publication PMC4880308, “Elongation Factor Tu Prevents Misediting of Gly-tRNA(Gly) Caused by the Design Behind the Chiral Proofreading Site of D-Aminoacyl-tRNA Deacylase” (PLoS Biology, 2016).

T1: PfDTD (D-aminoacyl-tRNA deacylase from Plasmodium falciparum) (Plasmodium falciparum, UniProt Q8IIS0)
T1 construct: gene DTD; recombinant; C-terminal His-tagged U-15N protein for NMR; dimer with cross-subunit Gly-cisPro motif in the active site
T1 sequence (Q8IIS0 1-164): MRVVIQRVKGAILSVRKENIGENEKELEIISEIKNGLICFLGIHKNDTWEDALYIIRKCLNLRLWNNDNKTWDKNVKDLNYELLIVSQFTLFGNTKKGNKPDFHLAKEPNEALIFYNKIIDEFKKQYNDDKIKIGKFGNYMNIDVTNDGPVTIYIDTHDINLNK


Key:
[1] = molecular target: T1, PfDTD (D-aminoacyl-tRNA deacylase from Plasmodium falciparum); assay: 2D […]-1H TROSY NMR titration (chemical shift perturbation); assay type: binding; conditions: substrate analog; 50 mM HEPES pH 7.0, 50 mM NaCl; 0.2 mM protein, up to 3 mM ligand
[2] = molecular target: the molecule itself; assay: crystal structure; co-crystal of PfDTD with Gly3AA (molar ratio 1:20), P2(1), eight monomers in the asymmetric unit; 0.1 M HEPES pH 7.5, 0.4 M NaCl, 28% PEG3350

Molecule	2D 15N-1H TROSY NMR titration (chemical shift perturbation) [1]	binding result [2]
C[C@@H](N)C(=O)N[C@H]1[C@@H](O)[C@H](n2cnc3c(N)ncnc32)O[C@@H]1CO [D-Ala3AA, D-alanyl-3′-aminoadenosine]	the data indicated binding of D-Ala3AA but not of L-Ala3AA	
D-aminoacyl-tRNA deacylase from Plasmodium falciparum (enzyme, D-aminoacyl-tRNA deacylase (DTD), Plasmodium falciparum, UniProt Q8IIS0; no tag is stated for the crystallised protein; The crystal also holds the small-molecule ligand Gly3AA; also called PfDTD; DTD; source: cloned, expressed, and purified as described in [15]) MRVVIQRVKGAILSVRKENIGENEKELEIISEIKNGLICFLGIHKNDTWEDALYIIRKCLNLRLWNNDNKTWDKNVKDLNYELLIVSQFTLFGNTKKGNKPDFHLAKEPNEALIFYNKIIDEFKKQYNDDKIKIGKFGNYMNIDVTNDGPVTIYIDTHDINLNK		binds
